Assay results taken from patent US20200360317A1, “CARBOXYLIC ACIDS FOR TREATING/PREVENTING A SKIN DISEASE” (Proponent Biotech GmbH, priority 2016, published 2020).

How the values were obtained:
[1] = test system: allergic hypersensitivity induced by Nickel allergen (skin); assay: Nickel-induced allergic contact dermatitis, topical treatment, blinded clinical score of skin lesion; type: in vivo, human; conditions: 4×140 μl of 50 mM Propionate in Locke-Ringer solution over 8 hours, 60 hours after last Nickel contact; vs Locke-Ringer control; n=2
Method: The study aimed at determining whether treatment with propionate promotes skin health following allergic hypersensitivity (particularly allergic contact dermatitis).
Allergic hypersensitivity was induced through contact sensitization with Nickel allergen over a 12 hour time period.
The sum of the four scores given blinded to each subject (n=2) yielded in the clinical score. The results can be seen in FIGS. 1 and 2.

[2] = test system: wound infection of injured skin; assay: Treatment of infected wound of injured skin; type: in vivo; conditions: skin treated with propionate vs skin treated with water
Description: The study aimed at determining whether treatment with propionate promotes skin health of wound infection of injured skin.

[3] = in Locke-Ringer Solution
Description: • Identification: Sodium propionate (Sigma-Aldrich, Cat. P5436-100G) • Test Item Name for Report: Sodium propionate • Description: Hygroscopic white powder • Batch Number: Lot.

## CCC(=O)[O-].[Na+] [Sodium propionate]
[1]
  Clinical score of skin lesion (sum of four scores): clinical score was significantly reduced
[2]
  Appearance of skin lesions (FIG. 4): lesions are significantly reduced
[3]
  Stability of Test Item in Solution: ≥ 6 months
